Test results from patent publication US20190313614A1, “MRAP2 KNOCKOUTS” (EFFSTOCK, LLC, priority 2013, published 2019).

Experiments:
[1] = test system: melanocortin receptor (Mc4r and Mc3r); test: Food intake following saline or MTII in Mrap2+/+ vs. Mrap2−/− mice; assay type: in vivo; conditions: young (age 38-45 days) Mrap2−/− mice; 2 μg/g body weight, i.p.
Text: FIG. 5A depicts images of the appearance of male and female Mrap^+/+ and Mrap2^−/− mice. Left panel: External appearance on standard chow (age 175 days). Upper right: mesenteric fat in female Mrap^+/+ and Mrap2^−/− mice (age 175 days). Lower right: Brown adipose tissue (BAT) in female Mrap^+/+ and Mrap2^−/− mice (age 175 days). FIG. 5B depicts the level of serum leptin in Mrap2^+/+ and Mrap2^−/− mice. Left panel: Mrap2^+/+ vs. Mrap2^−/− ad libitum fed male (n=4 vs. 6) and female (n=8 vs. 4) mice (ages 302-349 days). Right panel: Mrap2^+/+ vs. Mrap2^−/− food-restricted, weight-matched male (n=4 vs. 6, weight=27.4±0.6 vs. 24.8±0.2 g), and female (n=4 vs. 6, weight=21.5±0.6 vs. 20.8±0.2 g) mice (ages 135-151 days). *p=0.005, **p<0.00001. FIG. 5C depicts the level of fasting serum insulin in Mrap2^+/+ and Mrap2^−/− male (n=4 vs. 6) and female (n=6 vs. 8) mice (ages 88-194 days). There was no significant difference between genotypes of either gender. FIG. 5D depicts the results of a glucose tolerance test (intraperitoneal) in Mrap2^+/+ and Mrap2^−/− male (n=4 vs. 6) and female (n=6 vs. 8) mice (ages 88-194 days). There was no significant difference between genotypes of either gender. FIG. 5E depicts levels of blood corticosterone in morning, evening, and following 30 minutes of restraint stress in Mrap2^+/+ and Mrap2^−/− male (n=4 vs. 3) and female (n=6 vs. 7) mice (ages 124-178 days). […]

[2] = target: T1, Mc4r (Mus musculus, UniProt P56450); test: Mc4r bioassay for Mrap2 effect: cAMP reporter (CRELuc) activity in transfected CHO cells; assay type: cell-based; conditions: 0-10 nM αMSH, 5 h
T1 construct: expressed in transfected cells; host or cells: CHO cells (ATCC), transient transfection with pRC/CMV constructs, pCRE-Luc and pRL-TK
Text: FIGS. 3A-3C depict the interaction between Mrap2 and Mc4r. […] Top right, Cre DNA analysis by PCR. […] Molecular weight marker (M) on right (bp). Top left, Mrap2 DNA analysis in Sim1^CreBAC::Mrap2^f/f and Mrap2^f/f mice by PCR. Both genotypes contain floxed, intact Mrap2 DNA in CX, HT, and BS (314 bp in upper electropherogram, and 1013 bp in lower electropherogram, molecular weight markers on left). Only Sim1^CreBAC::Mrap2^f/f mice contain Mrap2^Del (400 bp, lower electropherogram), and only in HT and BS, but not in CX, consistent with fluorescent reporter data. No PCR products are present without added DNA (H2O). Bottom, Mrap2 mRNA expression in Sim1^CreBAC::Mrap2^f/f and Mrap2^f/f mice by RT-PCR. Both genotypes express floxed, intact Mrap2 mRNA in CX, HT, and BS (247 bp). Only Sim1^CreBAC::Mrap2^f/f mice express Mrap2^Del mRNA (147 bp), and only in HT. Global Mrap2^Del/Del mice express Mrap2^Del mRNA in all 3 sites. FIG. 3B depicts graphs of body weights of Mrap2^+/+ (male n=6, female n=11), Mrap2^−/− (male n=11, female n=7), Mrap2^f/f (male n=8, female n=12) and conditional Sim1^CreBAC::Mrap2^f/f (male n=8, female n=7) mice, all age 133 days. *p=0.04, **p=0.007, ***p=0.0002, ****p<0.0001. FIG. 3C depicts graphs of the effect of Mrap2 on Mc4r signaling. Left panel: Level of cAMP reporter activity (CRELuc) in CHO cells alone, or co-transfected with Mc4r, with or without Mrap2 or the Mrap2 knockout construct, Mrap2delE3, 5 h following exposure to 0-10 nM αMSH (n=3/group). Right panel: cAMP activity of these same constructs, expressed as percent induction following 0-10 nM αMSH, relative to 0 nM αMSH. *p<0.0001, Mc4r+Mrap2 vs. Mc4r at same [αMSH], by ANOVA. For most data points, error bars are obscured by symbols.
The coding sequences of mouse Mrap2 and Mc4r were isolated by PCR of brain cDNA (Mrap2) or genomic DNA (Mc4r) (Table S4), subcloned into TOPO-pCRII™ (Invitrogen, Carlsbad, Calif.), sequence-verified, and ligated into pRC/CMV (Invitrogen, Carlsbad, Calif.). Mrap2delE3, identical to the product of Mrap2^−/− mice, was also created and ligated into pRC/CMV. […]

[3] = target: T2, Mc3r (Mus musculus, UniProt P33033); test: Effect of Mrap2 on Mc3r signaling: cAMP reporter (CRELuc) activity in transfected CHO cells; assay type: cell-based; conditions: Mc3r+Mrap2 vs. Mc3r, at the two highest αMSH doses (0-10 nM, 5 h)
T2 construct: expressed in transfected cells; host or cells: CHO cells
Text: FIG. 6A depicts graphs of food intake (left panel) and body weight (right panel) in female Mrap2^flox/flox vs. Sim1^Cre: Mrap2^flox/flox mice. Sim1^Cre::Mrap2^flox/flox mice were either ad libitum-fed or pair-fed starting at age 70 days (upward arrow) to ad libitum-fed Mrap2^flox/flox mice. […] FIG. 6B depicts graphs of body weights in mice with combined knockout of Mrap2 and Mc4r. Top panels: Body weights in mixed Mrap^+/−::Mc4r^+/− genotypes (male Mrap^+/−::Mc4r^+/−, n=10; Mrap^+/+::Mc4r^+/−, n=10; Mrap^+/−::Mc4r^+/+, n=8; Mrap^+/+::Mc4r^+/+, n=9; female Mrap^+/−: Mc4r^−/−, n=9; Mrap^+/+::Mc4r^−/−, n=12; Mrap^+/−::Mc4r^+/+, n=8; Mrap^+/+::Mc4r^+/+, n=8). Bottom panels: Body weights in mixed Mrap^−/−::Mc4r^−/− genotypes (male Mrap^−/−:Mc4r^−/−, n=9; Mrap^+/+::Mc4r^−/−, n=8; Mrap^−/−: Mc4r^+/+, n=8; Mrap^+/+::Mc4r^+/+, n=9; female Mrap^−/−::Mc4r^−/−, n=7; Mrap^+/+:::Mc4r^−/−, n=8; Mrap^−/−::Mc4r^+/+, n=9; Mrap^+/+:::Mc4r^+/+, n=8). *p<0.05, **p<0.001 by ANOVA. FIG. 6C depicts the results of co-immunoprecipitation assay between Mrap2 and Mc4r. Transfection into CHO cells of Myc-tagged Mrap2 and GFP-tagged Mc4r was followed by anti-Myc immunoprecipitation and anti-GFP immunoblotting. […] Right panel: cAMP activity of these same constructs, expressed as percent induction following 0-10 nM αMSH, relative to 0 nM αMSH. *p<0.0001, Mc3r+Mrap2 vs. Mc3r at same [αMSH], by ANOVA. […]

T1 sequence (P56450 whole entry): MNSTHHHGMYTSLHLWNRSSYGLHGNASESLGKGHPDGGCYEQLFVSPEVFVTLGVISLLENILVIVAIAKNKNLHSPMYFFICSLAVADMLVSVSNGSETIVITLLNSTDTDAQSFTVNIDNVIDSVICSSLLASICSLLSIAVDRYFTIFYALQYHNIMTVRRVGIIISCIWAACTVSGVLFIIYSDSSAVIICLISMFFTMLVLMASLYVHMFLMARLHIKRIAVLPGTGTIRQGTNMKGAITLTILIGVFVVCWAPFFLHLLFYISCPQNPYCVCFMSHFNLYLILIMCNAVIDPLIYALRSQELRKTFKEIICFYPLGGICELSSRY
T2 sequence (P33033 whole entry): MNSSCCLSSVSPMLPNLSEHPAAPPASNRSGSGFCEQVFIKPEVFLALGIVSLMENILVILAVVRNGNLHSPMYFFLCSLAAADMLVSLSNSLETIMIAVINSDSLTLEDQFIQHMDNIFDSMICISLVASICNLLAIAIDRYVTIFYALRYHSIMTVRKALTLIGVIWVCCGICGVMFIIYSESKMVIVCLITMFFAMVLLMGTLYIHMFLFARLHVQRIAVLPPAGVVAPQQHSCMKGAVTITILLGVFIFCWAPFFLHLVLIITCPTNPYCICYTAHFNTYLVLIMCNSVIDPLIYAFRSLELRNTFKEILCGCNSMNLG

| increase above basal PKA activity ([2]; CHO cells co-transfected with Mc4r and Mrap2, relative to 0 nM αMSH) [fold] | increase above basal PKA activity ([2]; CHO cells with Mc4r alone) [fold] | increase above basal PKA activity ([2]; CHO cells with Mc4r plus the Mrap2 null construct Mrap2delE3) [fold] | signaling through Mc3r (cAMP reporter activity) [3] | Substance | anorectic response (food intake) [1] |
| --- | --- | --- | --- | --- | --- |
|  |  |  |  | acetyl-(Nle^4, Asp^5, D-Phe^7, Lys^10)-cyclo-[…]-MSH (4-10) amide acetate salt [MTII] | intact anorectic response |
| 5 | < 2 | < 2 | increased signaling | α-melanocyte stimulating hormone [αMSH] |  |
